{
  "source": "patent US20210228771A1",
  "about": "“BIOLOGIC MATERIAL COMPRISING A CROSSLINKED STRUCTURAL PROTEIN AND MACROPHAGES SEEDED ON THE CROSSLINKED STRUCTURAL PROTEIN” (CASE WESTERN RESERVE UNIVERSITY, priority 2020, published 2021)",
  "key": {"human endothelial cells": {"tested_on": "human endothelial cells", "conditions": "cited from earlier work"}, "M0 macrophages": {"tested_on": "M0 macrophages", "test": "Western blot (arginase-1) of M0 macrophages with direct addition of genipin to culture medium", "format": "cell-based, rat", "conditions": "for arginase-1 expression in genipin treated M0 (M0-GE): 12.5 μg/ml genipin added directly to culture medium, versus cytokine induced M2", "source_text": "7b. […] A second set of experiments included the following groups: 1) Tissue culture plate with M0-polarization medium, 2) Tissue culture plate with M1-polarization medium, 3) Tissue culture plate with M2-polarization medium, 4) Tissue culture plate with M0-polarization medium with direct addition of genipin, 5) M0 subtype cells seeded on uncrosslinked collagen threads, 6) M0 subtype cells seeded on genipin crosslinked collagen threads. In this design, Groups 1-3 constitute the positive controls. […] Comparison of group 5 with group 6 determines how genipin crosslinking of collagen affect the polarization status of M0 subtype. For group 4, genipin (Wako Pure Chemical Industries, catalog #078-03021, Richmond, Va.) in 0.1% dimethyl sulfoxide (DMSO, Sigma-Aldrich, USA) (12.5 μg/ml, genipin/DMSO) was directly added to the culture medium. […] Total cell lysate was prepared using RIPA lysis buffer (#50195822), phenylmethylsulfonylfluoride (PMSF) (#NC0417414) and protease/phosphatase inhibitor (#50193743) purchased from Cell Signaling Technology. The protein concentration in the cell lysate was estimated using DC protein assay (BioRad) and 25 μg protein was resolved using 4-20% Mini-PROTEAN gels (#4561094, BioRad) and transferred to a nitrocellulose membrane (#1620213, BioRad). The membrane was blocked in 5% non-fat dry milk/1% Tween 20 for 2 hr at room temperature. They were incubated with primary antibodies anti-Arg1 for M2 (sc-271430), anti-iNOS for M1 (sc-7271), pSTAT6 (#9361S), PPAR-gamma (sc-7273) and anti-GAPDH (sc-365062) as the housekeeping protein overnight at 4° C. Following day, the blots were washed in TBST and incubated with anti-mouse secondary antibody (sc-516102) conjugated with horseradish peroxidase detected by ECL-chemiluminescence, then underwent autoradiography using BioBlue-Lite™ film (Alkali Scientific, FL). Quantitative analysis of the protein bands was performed using the Image J."}, "pSTAT6 and PPAR-γ": {"tested_on": "pSTAT6 and PPAR-γ", "test": "Western blot of signaling pathways in genipin induced M2 polarization", "format": "cell-based, rat", "conditions": "genipin treated M0 (M0-GE)", "experimental": "7c. Investigation of signaling pathways involved in M2 polarization by genipin: A third set of experiments included the following groups: 1) Tissue culture plate with M2-polarization medium, 2) Tissue culture plate with M0-polarization medium with direct addition of genipin, 3) Tissue culture plate with M0-polarization medium. In this design, Groups 1 and 3 represent the positive and negative controls. Total cell lysate was prepared using RIPA lysis buffer (#50195822), phenylmethylsulfonylfluoride (PMSF) (#NC0417414) and protease/phosphatase inhibitor (#50193743) purchased from Cell Signaling Technology. The protein concentration in the cell lysate was estimated using DC protein assay (BioRad) and 25 μg protein was resolved using 4-20% Mini-PROTEAN gels (#4561094, BioRad) and transferred to a nitrocellulose membrane (#1620213, BioRad). The membrane was blocked in 5% non-fat dry milk/1% Tween 20 for 2 hr at room temperature. […] Following day, the blots were washed in TBST and incubated with anti-mouse secondary antibody (sc-516102) conjugated with horseradish peroxidase detected by ECL-chemiluminescence, then underwent autoradiography using BioBlue-Lite™ film (Alkali Scientific, FL). Quantitative analysis of the protein bands was performed using the Image J."}, "[1]": {"tested_on": "LPS-stimulated RAW 264.7 murine macrophages cell line", "conditions": "cited from earlier work"}, "[2]": {"conditions": "12.5 μg/ml; cited from earlier work"}, "[3]": {"tested_on": "LPS-stimulated microglia cells derived from rat brain", "conditions": "cited from earlier work"}},
  "data": [
    {"smiles": "COC(=O)C1=CO[C@@H](O)[C@@H]2C(CO)=CC[C@H]12", "note": "[genipin]", "values": [
      {"measurement": "TNF-α-induced VCAM-1 expression", "setting": "human endothelial cells", "value": "suppress"},
      {"measurement": "arginase-1 expression in genipin treated M0 (M0-GE)", "setting": "M0 macrophages", "value": "higher than for the M2 subtype induced with standard cytokines"},
      {"measurement": "arginase-1 expression in genipin treated M0 (M0-GE)", "setting": "M0 macrophages; listed as soluble genipin", "value": "moderately greater than a potent cytokine"},
      {"measurement": "increase in Arg1 expression, soluble genipin compared to genipin presented via crosslinked collagen", "setting": "M0 macrophages; M0GE vs. M0GES", "value": "approximately 3 fold"},
      {"measurement": "pSTAT6 expression", "setting": "pSTAT6 and PPAR-γ", "value": "significantly higher compared to M2 polarization induced by IL-4"},
      {"measurement": "TNF-α and IL-6 (pro-inflammatory markers)", "setting": "[1]", "value": "suppress"},
      {"measurement": "toxicity of genipin concentration", "setting": "[2]", "value": "subtoxic"},
      {"measurement": "IL-10 and TNF-α production", "setting": "[3]", "value": "leads to IL-10 and TNF-α production"}
    ]}
  ]
}
